# In patent US8338472B2, “Hexahydrocyclopentyl[F]indazole carboxamides and derivatives thereof as selective glucocorticoid receptor modulators” (Merck Sharp & Dohme Corp., priority 2008, dated 2012):
# Like-named read-outs stand apart in the source and are kept apart here.
# Key:
# [1] = target: T1, glucocorticoid receptor (GR) (Homo sapiens, UniProt P04150); assay: Ligand binding assay (GR BIND), 3H-dexamethasone displacement in MDA-MB-453 cell lysate; conditions: GR BIND Ki, Table 1
# T1 sequence (P04150 1-777): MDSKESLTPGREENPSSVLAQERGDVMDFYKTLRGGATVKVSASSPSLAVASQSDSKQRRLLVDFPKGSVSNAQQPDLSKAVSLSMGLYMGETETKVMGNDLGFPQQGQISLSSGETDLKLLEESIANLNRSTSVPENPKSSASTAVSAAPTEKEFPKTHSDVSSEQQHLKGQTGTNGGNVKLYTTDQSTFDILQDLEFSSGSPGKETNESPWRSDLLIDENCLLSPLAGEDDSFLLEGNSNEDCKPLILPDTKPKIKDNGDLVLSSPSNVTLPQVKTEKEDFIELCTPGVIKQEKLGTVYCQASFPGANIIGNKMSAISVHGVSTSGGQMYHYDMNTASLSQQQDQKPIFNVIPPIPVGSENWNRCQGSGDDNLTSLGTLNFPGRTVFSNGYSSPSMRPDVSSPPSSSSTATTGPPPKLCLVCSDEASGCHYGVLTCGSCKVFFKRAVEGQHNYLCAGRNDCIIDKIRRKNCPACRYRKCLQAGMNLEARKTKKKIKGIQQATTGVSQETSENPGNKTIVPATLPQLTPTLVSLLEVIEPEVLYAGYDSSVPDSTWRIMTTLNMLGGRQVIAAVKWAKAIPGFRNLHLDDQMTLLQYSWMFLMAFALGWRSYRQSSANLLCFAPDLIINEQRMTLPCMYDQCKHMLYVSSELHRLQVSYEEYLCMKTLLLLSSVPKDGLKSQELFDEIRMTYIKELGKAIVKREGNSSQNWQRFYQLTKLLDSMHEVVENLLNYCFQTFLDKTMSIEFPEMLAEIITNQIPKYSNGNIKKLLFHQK
# Protocol: Binding Buffer: TEGM (10 mM Tris-HCl, 1 mM EDTA, 10% glycerol, 1 mM beta-mecaptoethanol, 10 mM Sodium Molybdate, pH 7.2)
# 50% HAP Slurry: Calbiochem Hydroxylapatite, Fast Flow, in 10 mM Tris, pH 8.0 and 1 mM EDTA.
# Wash Buffer: 40 mM Tris, pH7.5, 100 mM KCl, 1 mM EDTA and 1 mM EGTA.
# Dexmethasone-methyl-^3H, (DEX*); (Amersham cat# TRK645)
# Dexamethasone(DEX) (Sigma, cat# D1756):
# The cell pellet is washed twice with TEGM (10 mM Tris-HCl, 1 mM EDTA, 10% glycerol, 1 mM beta-mercaptoethanol, 10 mM Sodium Molybdate, pH 7.2). After the final wash, the cells are resuspended in TEGM at a concentration of 10^7 cells/mL. The cell suspension is snap frozen in liquid nitrogen or ethanol/dry ice bath and transferred to −80° C. freezer on dry ice. Before setting up the binding assay, the frozen samples are left on ice-water to just thaw (˜1 hr). Then the samples are centrifuged at 12,500 g to 20,000 g for 30 min at 4° C. The supernatant is used to set-up assay right away. If using 50 μL of supernatant, the test compound can be prepared in 50 μL of the TEGM buffer.
# Procedure for Multiple Compound Screening
# 1×TEGM buffer is prepared, and the isotope-containing assay mixture is prepared in the following order: EtOH (2% final concentration in reaction), ^3H-DEX (Amersham Biosciences) and 1×TEGM. [e.g. For 100 samples, 200 μL (100×2) of EtOH+4.25 μL of 1:10 ^3H-Dex stock+2300 μL (100×23) 1×TEGM]. The compound is serially diluted, e.g., if starting final conc. is 1 μM, and the compound is in 25 μL of solution, for duplicate samples, 75 μL of 4×1 μM solution is made and 3 μL of 100 μM is added to 72 μL of buffer, and 1:5 serial dilution.
# 25 μL of ^3H-DEX (6 nM) trace and 25 μL compound solution are first mixed together, followed by addition of 50 μL receptor solution. The reaction is gently mixed, spun briefly at about 200 rpm and incubated at 4° C. overnight. 100 μL of 50% HAP slurry is prepared and added to the incubated reaction which is then vortexed and incubated on ice for 5 to 10 minutes. The reaction mixture is vortexed twice more to resuspend HAP while incubating reaction. The samples in 96-well format are then washed in wash buffer using The FilterMate™ Universal Harvester plate washer (Packard). The washing process transfers HAP pellet containing ligand-bound expressed receptor to Unifilter-96 GF/B filter plate (Packard). The HAP pellet on the filter plate is incubated with 50 μL of MICROSCINT (Packard) scintillint for 30 minutes before being counted on the TopCount microscintillation counter (Packard). IC50s are calculated using DEX as a reference.
# Glucocorticoid Receptor = target: T2, Glucocorticoid Receptor (Homo sapiens, UniProt P04150); assay: Trans-Activation Modulation of Glucocorticoid Receptor (GRAMMER), MMTV-LUC reporter gene in A549 cells; format: cell-based; conditions: Table 1; for Emax: A549, A549 cells, read-out: Transactivation A549 Cells GRAMMER Emax; for Emax / Transactivation A549 Cells GRAMMER Emax: Emax relative to 300 nM dexamethasone; for EC50: inflection point, read-out: Transactivation A549 Cells GRAMMER IP; for EC50 / Transactivation A549 Cells GRAMMER Emax: A549 cells
# T2 construct: These cells express large amount of the GR and are very responsive to GC treatment; endogenous in cells; host or cells: A549 cells transiently transfected with the MMTV-LUC reporter
# T2 sequence (P04150 1-777): T1 sequence (P04150 1-777)
# Procedure, shortened: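 Luciferase from a transiently transfected MMTV-LUC reporter was measured after 24 h compound exposure (≤1% DMSO) in A549 or MDA-MB-453 cells. For antagonism, the decrease of 10 nM dexamethasone-induced signal was calculated. For agonism, Emax was referenced to 300 nM dexamethasone.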
# human GR = target: T3, human GR (Homo sapiens, UniProt P04150); assay: Transrepression Assay (GITAR), TNFα-β-lactamase reporter gene in U937 cells; format: cell-based; conditions: for GITAR Greater than by GRAMMER % SEP: GITAR Emax minus GRAMMER Emax; for EC50: inflection point, read-out: Transrepression U937 Cells GITAR IP; for EC50 / Transrepression U937 Cells GITAR Emax: U937 cells
# T3 construct: U937 cells contain an endogenous glucocorticoid receptor (GR); endogenous in cells; host or cells: U937 cells stably transfected with the TNF-alpha promoter/beta-lactamase reporter
# T3 sequence (P04150 1-777): T1 sequence (P04150 1-777)
# Procedure, shortened: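 Repression of PMA (5 ng/ml final)/LPS (100 ng/ml final)-induced TNF-α promoter activity, read as β-lactamase cleavage of CCF2-AM, in stably transfected U937 cells expressing native GR. Compound added 30-45 min before stimulation, overnight (~18 hr) 37° C; normalized to 100 nM dexamethasone (100%).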
# [2] = U-937, U937 cells, activity repressed by 100 nM dexamethasone = 100%, Table 1, read-out: Transrepression U937 Cells GITAR Emax
# [3] = U-937, text statement, 100 nM dexamethasone = 100%, read-out: maximal activity in the transrepression assay (GITAR)
# [4] = activity repressed by 100 nM dexamethasone = 100%, Table 1
Structure (SMILES),Ki [1] [nM],Emax (Glucocorticoid Receptor) [%],EC50 (Glucocorticoid Receptor) [nM],GITAR Greater than by GRAMMER % SEP (human GR; Table 1) [%],Emax (human GR; [2]) [%],Emax (human GR; [3]) [%],EC50 (human GR; Table 1) [nM],Transactivation A549 Cells GRAMMER Emax (Glucocorticoid Receptor) [%],Transrepression U937 Cells GITAR Emax (human GR; [4]) [%]
"C[C@]12Cc3cnn(-c4ccc(F)cc4)c3C=C1CC[C@@H]2C(=O)N(Cc1ccccc1F)CC(O)C(F)(F)F (stereo partly drawn) [Compound 59, (4αR,5S)-N-(2-fluorobenzyl)-1-(4-fluorophenyl)-4α-methyl-N-(3,3,3-trifluoro-2-hydroxypropyl)-1,4,4α,5,6,7-hexahydrocyclopenta[f]indazole-5-carboxamide]",3.9,75.2,117,1.5,76.7,> 5,91.5,–,–
"C[C@]12Cc3cnn(-c4ccc(F)cc4)c3C=C1CC[C@@H]2C(=O)N(CCO)CC(O)C(F)(F)F (stereo partly drawn) [Compound 60, (4αR,5S)-1-(4-fluorophenyl)-N-(2-hydroxyethyl)-4α-methyl-N-(3,3,3-trifluoro-2-hydroxypropyl)-1,4,4α,5,6,7-hexahydrocyclopenta[f]indazole-5-carboxamide]",12.6,55.6,46.3,29.8,85.4,> 5,87.1,–,–
"CCCN(CC(O)C(F)(F)F)C(=O)[C@H]1CCC2=Cc3c(cnn3-c3ccc(F)cc3)C[C@@]21C (stereo partly drawn) [Compound 61, (4αR,5S)-1-(4-fluorophenyl)-4α-methyl-N-propyl-N-(3,3,3-trifluoro-2-hydroxypropyl)-1,4,4α,5,6,7-hexahydrocyclopenta[f]indazole-5-carboxamide]",1,82.4,55.6,14.0,96.5,> 5,41.2,–,–
"CCCN(CC1CCCO1)C(=O)[C@H]1CCC2=Cc3c(cnn3-c3ccc(F)cc3)C[C@@]21C (stereo partly drawn) [Compound 62, (4αR,5S)-1-(4-fluorophenyl)-4α-methyl-N-propyl-N-(tetrahydrofuran-2-ylmethyl)-1,4,4α,5,6,7-hexahydrocyclopenta[f]indazole-5-carboxamide]",6.9,18,602,23.5,41.5,> 5,688,–,–
"CCCN(CC1CCCO1)C(=O)[C@H]1CCC2=Cc3c(cnn3-c3ccc(F)cc3)C[C@@]21C (stereo partly drawn) [Compound 63, (4αR,5S)-1-(4-fluorophenyl)-4α-methyl-N-propyl-N-(tetrahydrofuran-2-ylmethyl)-1,4,4α,5,6,7-hexahydrocyclopenta[f]indazole-5-carboxamide]",6,–,725,17.6,–,–,713,28.3,45.9
"C[C@]12Cc3cnn(-c4ccc(F)cc4)c3C=C1CC[C@@H]2C(=O)N(CC1CCC1)CC1CCCO1 (stereo partly drawn) [Compound 64, (4αR,5S)-N-(cyclobutylmethyl)-1-(4-fluorophenyl)-4α-methyl-N-(tetrahydrofuran-2-ylmethyl)-1,4,4α,5,6,7-hexahydrocyclopenta[f]indazole-5-carboxamide]",1.9,27.1,674,9.5,36.6,> 5,479,–,–
"CCCN(C[C@H](C)O)C(=O)[C@H]1CCC2=Cc3c(cnn3-c3ccc(F)cc3)C[C@@]21C [Compound 65, (4αR,5S)-1-4-(4-fluorophenyl)-N-[(2S)-2-hydroxypropyl]-4α-methyl-N-propyl-1,4,4α,5,6,7-hexahydrocyclopenta[f]indazole-5-carboxamide]",4.7,72.8,431,8.4,81.2,> 5,424,–,–
"CC(C)CN(C[C@H](C)O)C(=O)[C@H]1CCC2=Cc3c(cnn3-c3ccc(F)cc3)C[C@@]21C [Compound 66, (4αR,5S)-1-(4-fluorophenyl)-N-[(2S)-2-hydroxypropyl]-N-isobutyl-4α-methyl-1,4,4α,5,6,7-hexahydrocyclopenta[f]indazole-5-carboxamide]",8.7,67.6,613,10.5,78.1,> 5,685,–,–
"CC(C)CN(C[C@@H](C)O)C(=O)[C@H]1CCC2=Cc3c(cnn3-c3ccc(F)cc3)C[C@@]21C [Compound 67, (4αR,5S)-1-(4-fluorophenyl)-N-[(2R)-2-hydroxypropyl]-N-isobutyl-4α-methyl-1,4,4α,5,6,7-hexahydrocyclopenta[f]indazole-5-carboxamide]",5.1,67,725,9.9,76.9,> 5,558,–,–
"C[C@]12Cc3cnn(-c4ccc(F)cc4)c3C=C1CC[C@@H]2C(=O)N(CCO)c1ccccc1 [Compound 68, (4αR,5S)-1-(4-fluorophenyl)-N-(2-hydroxyethyl)-4α-methyl-N-phenyl-1,4,4α,5,6,7-hexahydrocyclopenta[f]indazole-5-carboxamide]",3.8,3.8,128,14.4,18.2,> 5,1020,–,–
"C[C@H](O)CN(CCc1ccccc1F)C(=O)[C@H]1CCC2=Cc3c(cnn3-c3ccc(F)cc3)C[C@@]21C [Compound 69, (4αR,5S)-1-(4-fluorophenyl)-N-[2-(2-fluorophenyl)ethyl]-N-[(2S)-2-hydroxypropyl]-4α-methyl-1,4,4α,5,6,7-hexahydrocyclopenta[f]indazole-5-carboxamide]",5.4,21.9,680,42.6,64.4,> 5,714,–,–
"CN(CC(O)C(F)(F)F)C(=O)[C@H]1CCC2=Cc3c(cnn3-c3ccc(F)cc3)C[C@@]21C (stereo partly drawn) [Compound 70, (4αR,5S)-1-(4-fluorophenyl)-N,4α-dimethyl-N-(3,3,3-trifluoro-2-hydroxypropyl)-1,4,4α,5,6,7-hexahydrocyclopenta[f]indazole-5-carboxamide]",10.7,62.5,231,24.5,86.9,> 5,276,–,–
"CCN(CC(O)C(F)(F)F)C(=O)[C@H]1CCC2=Cc3c(cnn3-c3ccc(F)cc3)C[C@@]21C (stereo partly drawn) [Compound 71, (4αR,5S)-N-ethyl-1-(4-fluorophenyl)-4α-methyl-N-(3,3,3-trifluoro-2-hydroxypropyl)-1,4,4α,5,6,7-hexahydrocyclopenta[f]indazole-5-carboxamide]",2.6,71.7,151,24.0,95.6,> 5,85,–,–
"CCN(CC(O)C(F)(F)F)C(=O)[C@H]1CCC2=Cc3c(cnn3-c3ccc(F)cc3)C[C@@]21C (stereo partly drawn) [Compound 72, (4αR,5S)-N-ethyl-1-(4-fluorophenyl)-4α-methyl-N-(3,3,3-trifluoro-2-hydroxypropyl)-1,4,4α,5,6,7-hexahydrocyclopenta[f]indazole-5-carboxamide]",2.3,–,37,19.6,–,–,43.9,71.2,90.8
